According to paper PMC4266452, “Prediction of Thorough QT study results using action potential simulations based on ion channel screens” (Journal of Pharmacological and Toxicological Methods, 2014):
Where “and” joins values, the source holds several entries; their conditions need not be identical. Equal entries are not always repeated. Where two headings read alike, the source gives them in different places.

Assays:
CaV1.2 [1] = molecular target: T1, CaV1.2 (Homo sapiens, UniProt Q13936); experiment: IonWorks Quattro CaV1.2 screen (AstraZeneca, Q)
hERG = hERG (Homo sapiens, UniProt Q12809); experiment: IonWorks Quattro hERG screen (AstraZeneca, Q)
NaV1.5 [2] = molecular target: T2, NaV1.5 (Homo sapiens, UniProt Q14524); experiment: IonWorks Quattro NaV1.5 screen (AstraZeneca, Q)
[3] = ref Gintant (2011); cited from earlier work
[4] = cited from earlier work
[5] = Plasma concentration (Cmax) during the TQT study, total and calculated free; format: in vivo, human
KCNQ1/MinK = KCNQ1/MinK (Homo sapiens, UniProt P51787); experiment: IonWorks Quattro KCNQ1/MinK screen (AstraZeneca, Q); details: −log10 of IC50 in Molar
Kv4.3/KChIP2.2 = molecular target: T3, Kv4.3/KChIP2.2 (Homo sapiens, UniProt Q9UK17); experiment: IonWorks Quattro Kv4.3/KChIP2.2 screen (AstraZeneca, Q); format: cell-based; details: IonWorks Quattro, −log10 of IC50 in Molar, Hill n = 1
T3 sequence (Q9UK17 1-655): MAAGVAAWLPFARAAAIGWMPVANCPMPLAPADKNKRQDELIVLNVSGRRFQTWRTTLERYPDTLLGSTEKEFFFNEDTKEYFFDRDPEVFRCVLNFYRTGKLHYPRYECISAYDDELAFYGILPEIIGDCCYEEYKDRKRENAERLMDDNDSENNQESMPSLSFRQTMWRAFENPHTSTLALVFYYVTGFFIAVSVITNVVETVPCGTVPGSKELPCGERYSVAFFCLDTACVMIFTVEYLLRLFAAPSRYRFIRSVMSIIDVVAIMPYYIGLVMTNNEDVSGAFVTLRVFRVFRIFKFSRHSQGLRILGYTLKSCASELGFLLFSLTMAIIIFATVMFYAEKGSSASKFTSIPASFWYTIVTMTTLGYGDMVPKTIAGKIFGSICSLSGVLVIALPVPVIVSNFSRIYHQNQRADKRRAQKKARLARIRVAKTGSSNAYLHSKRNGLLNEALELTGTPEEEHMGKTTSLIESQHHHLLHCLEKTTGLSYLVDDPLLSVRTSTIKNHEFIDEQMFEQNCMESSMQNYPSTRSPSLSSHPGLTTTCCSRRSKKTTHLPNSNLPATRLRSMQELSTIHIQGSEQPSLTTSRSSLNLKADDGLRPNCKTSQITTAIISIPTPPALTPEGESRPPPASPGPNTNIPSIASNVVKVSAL
T3 sequence (Q9NS61 1-270 partner): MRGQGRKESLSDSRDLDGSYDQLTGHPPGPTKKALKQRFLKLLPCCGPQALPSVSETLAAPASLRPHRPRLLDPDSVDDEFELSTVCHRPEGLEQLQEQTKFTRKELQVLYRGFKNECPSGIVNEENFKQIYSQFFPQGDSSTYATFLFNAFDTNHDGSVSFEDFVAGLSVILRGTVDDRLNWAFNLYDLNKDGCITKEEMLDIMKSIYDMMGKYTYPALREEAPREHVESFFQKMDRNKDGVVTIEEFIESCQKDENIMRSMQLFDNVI

CaV1.2 [6] = molecular target: T1, CaV1.2; experiment: IonWorks Barracuda CaV1.2 screen (GSK, B)
NaV1.5 [7] = molecular target: T2, NaV1.5; experiment: Second IonWorks Quattro NaV1.5 screen (GSK, Q2)
[8] = tested on: QT interval on the body surface ECG; details: ref Gintant (2011); cited from earlier work
[9] = IonWorks Quattro, −log10 of IC50 in Molar, Hill n = 1, 0.0 = pIC50 ≤ 0 fitted
[10] = Hill n = 1, 0.0 = pIC50 ≤ 0 fitted
[11] = second independent Quattro screening, −log10 of IC50 in Molar, 0.0 = pIC50 ≤ 0 fitted
[12] = Cmax high, calculated from ng/mL and molecular weight
[13] = Cmax high, calculated with PPB and molecular weight
[14] = Cmax low, calculated from ng/mL and molecular weight
[15] = Cmax low, calculated with PPB and molecular weight

SMILES	CaV1.2 pIC50 (Q) (CaV1.2 [1]; [9])	NaV1.5 pIC50 (Q) (NaV1.5 [2]; [9])	PPB (percent plasma binding) [3]	KCNQ1 pIC50 (Q) (KCNQ1/MinK; [10])	Kv4.3 pIC50 (Q) (Kv4.3/KChIP2.2; 0.0 = pIC50 ≤ 0 fitted)	CaV1.2 pIC50 (B) (CaV1.2 [6])	Cmax TOTAL ([4]; Cmax high, ref Gintant (2011)) [ng/mL]	Cmax TOTAL ([4]; Cmax low, ref Gintant (2011)) [ng/mL]	Free plasma concentration ([5]; Cmax high) [nM]	Cmax TOTAL [5, 12] [nM]	Cmax FREE ([5]; Cmax high, calculated with PPB) [ng/mL]	Cmax FREE [5, 13] [nM]	Free plasma concentration ([5]; Cmax low) [nM]	Cmax TOTAL [5, 14] [nM]	Cmax FREE ([5]; Cmax low, calculated with PPB) [ng/mL]	Cmax FREE [5, 15] [nM]	NaV1.5 pIC50 (Q) (NaV1.5 [2])	other results
C[C@H]1CN(C[C@H](Cc2ccccc2)C(=O)NCC(=O)O)CC[C@@]1(C)c1cccc(O)c1 [Alvimopan]	5.3	3.6	70%	4.3														IC50 (hERG): 63.1 mM; Cmax TOTAL ([4]; 12mg Capsule, ref Gintant (2011)): 9.9 ng/mL; Cmax FREE ([5]; 12mg Capsule): 2.97 ng/mL and 6.996 nM; Cmax TOTAL ([5]; 12mg Capsule): 23.3199 nM; Free plasma concentration ([5]; 12mg Capsule): 6.996 nM; Cmax FREE ([5]; 24 extrapolate): 5.94 ng/mL and 13.9919 nM; Cmax TOTAL ([5]; 24 extrapolate): 19.8 ng/mL and 46.6398 nM; Free plasma concentration ([5]; 24 extrapolate): 13.99 nM
Cc1nc2n(c(=O)c1CCN1CCC(c3noc4cc(F)ccc34)CC1)CCCC2O (stereo not drawn) [Paliperidone]		4.6	73% PPB		4.2	3.0	113	35	71.54	264.953	30.51	71.5374	22.16	82.0652	9.45	22.1576		CaV1.2 pIC50 (Q) (CaV1.2 [1]): 3.4; NaV1.5 pIC50 (Q2) (NaV1.5 [7]; [11]): 3.8
Cc1ccc(O)c([C@H](CCN(C(C)C)C(C)C)c2ccccc2)c1 [Tolterodine]			96.30%			4.6	19.00	9.10	1.343	36.307	0.703	1.343	0.6434	17.389	0.337	0.643		Kv4.3 pIC50 (Q) (Kv4.3/KChIP2.2; […]): 4.9; KCNQ1 pIC50 (Q) (KCNQ1/MinK; Hill n = 1, […]): 4.1
CO[C@H]1C[C@@H]2CC[C@@H](C)[C@@](O)(O2)C(=O)C(=O)N2CCCC[C@H]2C(=O)O[C@H]([C@H](C)C[C@@H]2CC[C@@H](OCCO)[C@H](OC)C2)CC(=O)[C@H](C)/C=C(\C)[C@@H](O)[C@@H](OC)C(=O)[C@H](C)C[C@H](C)/C=C/C=C/C=C/1C [Everolimus]			74%	4.0	2.0												3.2	NaV1.5 pIC50 (Q2) (NaV1.5 [7]): 3.7; Cmax TOTAL ([4]; Cmax 50mg/kg, ref http://journals.lww.com/jto/pages/articleviewer.aspx?year=2011&issue=12000&article=00023&type=abstract Table 6): 251 ng/mL; Cmax FREE ([5]; Cmax 50mg/kg): 65.26 ng/mL; Cmax TOTAL ([5]; Cmax 50mg/kg): 261.943 nM
Nc1nnc(-c2cccc(Cl)c2Cl)c(N)n1 [Lamotrigine]		4.0	55% PPB			2.9	9610	7220	37525.9	37525.9	4324.5	37525.9	28193.2		3249			CaV1.2 pIC50 (Q) (CaV1.2 [1]): 2.8; NaV1.5 pIC50 (Q2) (NaV1.5 [7]; [11]): 4.4
N[C@@H](CC(=O)N1CCn2c(nnc2C(F)(F)F)C1)Cc1cc(F)c(F)cc1F [Sitagliptin]	1.0		30% PPB	3.5			5468	498			3827.6	9397.17			348.6	855.851	3.1	TQT study outcome in words (COMMENTS) [8]: Minimal effects at supratherapeutic concentrations; NaV1.5 pIC50 (Q2) (NaV1.5 [7]): 3.2
CCN(CC)CCNC(=O)c1c(C)[nH]c(/C=C2\C(=O)Nc3ccc(F)cc32)c1C [Sunitinib]	4.1				4.3		80.000		7.51	150.207	4.000	7.510						CaV1.2 pIC50 (B) (CaV1.2 [6]; IonWorks Barracuda, −log10 of IC50 in Molar, Hill n = 1, 0.0 = pIC50 ≤ 0 fitted): 3.7
C[C@H](Cc1cc2c(c(C(N)=O)c1)N(CCCO)CC2)NCCOc1ccccc1OCC(F)(F)F [Silodosin]	3.1	4.2	95% PPB	3.6	3.5		144	42.5	14.53	290.598	7.2	14.530	4.288	85.767	2.125	4.288		IC50 at 3 min (hERG; human, CHO K1 cells stably transfected with human ERG): 0.0251 mM
Cc1cn([C@@H]2C[C@@H](O)[C@H](CO)O2)c(=O)[nH]c1=O [Telbivudine]			3.3%	3.6			6600	2200		27246.8	6382.2	26347.7		9082.28	2127.4	8782.56	2.5	IC50 (hERG): 5.01 mM
